The source of these data is US20240315242A1, “Antibacterial Compound” (LG Chem, Ltd., priority 2021, published 2024).

For this assay, the system named is E. coli (ATCC 25922). The assay is described as follows: Evaluation of antibacterial property against E. coli (absorbance at 600 nm). To be noted: injection amount of compound 0.01 g in 25 mL nutrient broth with E. coli ATCC 25922 at 3000 CFU/mL; 16 hours at 35° C.; absorbance at 600 nm vs pure culture medium. In kind it is cell-based, Escherichia coli. The protocol: [formula] • in the equation, • As(Asample) represents absorbance of the culture medium containing the bacteriostatic substance at a wavelength of 600 nm, and • A0(Areference) represents absorbance of the pure culture medium without the bacteriostatic substance at a wavelength of 600 nm.
(1) Evaluation of Antibacterial Property Against E. coli
25 mL of a nutrient broth culture medium inoculated with E. coli (ATCC 25922) at 3000 CFU/mL was transferred to a 50 ml conical tube, and then the antibacterial compounds (bacteriostatic substances) prepared in Preparation Examples and Comparative Preparation Examples were injected in each amount described in Table 2 below, followed by sufficiently mixing. Thereafter, incubation was performed for 16 hours in a shaking incubator (Visiontech, VS-37SIF) maintained at 35° C.
The incubated solution was diluted to ⅕ using 1×PBS buffer solution, and absorbance at the wavelength of 600 nm was measured for the diluted solution using a UV-Vis Spectrophotometer (K Lab, Optizen POP). In addition, E. coli (ATCC 25922) was cultured in a pure culture medium without the antibacterial compound for 16 hours in a shaking incubator (VISION TECH, VS-37SIF) maintained at 35° C., which was prepared as a control, and absorbance at the wavelength of 600 nm was measured in the same manner as above.
Then, antibacterial rates (%) of E. coli (ATCC 25922) were calculated according to the following Equation 1, and the results are shown in Table 2 below.
[formula] • in the equation, • As(Asample) represents absorbance of the culture medium containing the bacteriostatic substance at a wavelength of 600 nm, and • A0(Areference) represents absorbance of the E. coli pure culture medium without the bacteriostatic substance at a wavelength of 600 nm.

Turning to `C=C(C)C(=O)OCC[N+](C)(C)CCCCCCCCCCCC` [Compound 2], the “Antibacterial rate (%)” value is recorded as 98.1%.

For `C=CC(=O)OCC[N+](C)(C)CCCCCCCCCC` [Compound 5], the “Antibacterial rate (%)” value is listed as 95.8%.

In the case of `C=C(C)C(=O)OCC[N+](C)(C)CCCCCCCC` [Compound B, reference compound], the “Antibacterial rate (%)” value turned out to be 69.2%.

For the compound `C=CC(=O)OCC[N+](C)(C)CCCCCCCC` [Compound 6], the “Antibacterial rate (%)” value came out at 70.6%.

Consider `C=CC(=O)OCC[N+](C)(C)CCCCCCCCCCCC` [Compound 3], for which the “Antibacterial rate (%)” value is reported as 97.3%.

Consider `C=C(C)C(=O)OCC[N+](C)(C)CCCCCCCCCC` [Compound 1], for which the “Antibacterial rate (%)” value is on record as 95.3%.

Regarding `C=CC(=O)OCC[N+](C)(C)CCCCCCCC` [Compound E, reference compound], the “Antibacterial rate (%)” value was determined as 62.3%.
